As usually defined, the IC50 is the concentration needed to halve the response being measured.

Consider 37 molecules from patent US12139471B2, “NLRP3 inflammasome inhibitors” (Novartis AG, priority 2019, dated 2024).

Counter-ions that a name gives are not always drawn. Like-named read-outs stand apart in the source and are kept apart here.

For this experiment, the target named is T1, NLRP3 inflammasome (Homo sapiens, UniProt Q96P20).
T1 construct: host or cells: THP-1 cells, PMA-differentiated
The experiment is described as follows: IL-1β secretion assay (nigericin-activated, PMA-differentiated THP-1 cells, HTRF). As to conditions: compound 1 hour, then 15 μM nigericin, 3 hours, IL-1β by HTRF. It is filed as cell-based. As for the experimental part:
10 μL supernatant was removed, and IL-1β levels were monitored using an HTRF assay (CisBio, #62IL1PEC) according to manufacturers' instructions. Viability and pyroptosis was monitored with the addition of PrestoBlue cell viability reagent (Life Technologies, #A13261) directly to the cell culture plate.
IC50 values were calculated from the plot of percentage of inhibition versus the inhibitor concentration by a logistics fit according to: y=A2+(A1−A2)/(1+(x/IC50)^p) where y is the %-inhibition at the inhibitor concentration, x. A1 is the lowest inhibition value, i.e. 0%, and A2 the maximum inhibition value, i.e. 100%. The exponent, p, is the Hill coefficient. The curve fitting was conducted with an internally developed software suite.
NLRP3-dependent IL-1β secretion was stimulated in PMA-differentiated THP-1 cells by the addition of nigericin, and cytokines were measured in the […] after 3 hours. As discussed above, activation of the NLRP3 inflammasome requires both an NF-kB-dependent priming step and the addition of a NLRP3 activator.

Where [1] appears, read: PMA-differentiated THP-1 cells, read-out: IL-1β IC50.
The mark [2] stands for this setting: IL-1β IC50, PMA-differentiated THP-1 cells.

T1 sequence (Q96P20 whole entry): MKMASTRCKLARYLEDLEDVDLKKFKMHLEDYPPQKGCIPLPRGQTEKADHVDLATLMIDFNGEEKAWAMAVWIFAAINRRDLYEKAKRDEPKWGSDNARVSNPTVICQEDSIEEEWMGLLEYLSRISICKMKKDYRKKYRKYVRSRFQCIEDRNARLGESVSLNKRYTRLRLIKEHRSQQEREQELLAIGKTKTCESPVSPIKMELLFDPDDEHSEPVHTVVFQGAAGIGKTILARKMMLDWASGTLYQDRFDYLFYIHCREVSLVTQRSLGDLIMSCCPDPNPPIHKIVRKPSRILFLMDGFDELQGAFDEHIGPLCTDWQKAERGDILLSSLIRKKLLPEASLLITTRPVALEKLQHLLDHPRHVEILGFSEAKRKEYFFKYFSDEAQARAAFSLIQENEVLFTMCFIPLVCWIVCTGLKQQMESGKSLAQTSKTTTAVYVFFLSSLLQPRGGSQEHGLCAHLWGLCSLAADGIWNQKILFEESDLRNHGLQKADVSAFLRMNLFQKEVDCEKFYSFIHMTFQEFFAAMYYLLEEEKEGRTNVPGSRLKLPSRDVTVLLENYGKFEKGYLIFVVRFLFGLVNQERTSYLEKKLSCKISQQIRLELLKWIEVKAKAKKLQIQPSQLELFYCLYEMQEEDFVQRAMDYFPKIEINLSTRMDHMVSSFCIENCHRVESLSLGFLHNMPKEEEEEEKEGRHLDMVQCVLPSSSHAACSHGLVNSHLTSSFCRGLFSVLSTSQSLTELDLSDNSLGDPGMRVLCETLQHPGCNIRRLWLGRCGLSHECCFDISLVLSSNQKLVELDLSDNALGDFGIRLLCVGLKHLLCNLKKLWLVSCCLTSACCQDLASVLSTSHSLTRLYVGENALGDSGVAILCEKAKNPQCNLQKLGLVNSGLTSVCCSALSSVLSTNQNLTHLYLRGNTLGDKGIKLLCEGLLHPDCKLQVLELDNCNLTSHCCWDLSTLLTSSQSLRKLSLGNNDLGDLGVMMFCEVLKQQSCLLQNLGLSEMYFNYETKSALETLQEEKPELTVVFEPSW

In the case of `Cc1cc(C(F)(F)F)cc(O)c1-c1cc(C(F)(F)F)c(NCCO)nn1` [Ex 26, 2-(6-((2-Hydroxyethyl)amino)-5-(trifluoromethyl)pyridazin-3-yl)-3-methyl-5-(trifluoromethyl)phenol], the IC50 under setting [1] was found to be 165 nM.

Regarding `Cc1cc(C(F)(F)F)cc(O)c1-c1ccc(N[C@@H]2CCC(=O)NC2)nn1` [Ex 61, (R)-5-((6-(2-Hydroxy-6-methyl-4-(trifluoromethyl)phenyl)pyridazin-3-yl)amino)piperidin-2-one], the IC50 under setting [1] was found to be 65.8 nM. Same read-out and setting: the value for `Cc1cc(C(F)(F)F)cc(O)c1-c1ccc(NCC2COCCN2C)nn1` (racemic) [Ex 77, (rac)-3-Methyl-2-(6-(((4-methylmorpholin-3-yl)methyl)amino)pyridazin-3-yl)-5-(trifluoromethyl)phenol] was 61.9 nM; that for `Cc1cc(C(F)(F)F)cc(O)c1-c1ccc(NCC(C)(C)O)nn1` [Ex 15, 2-(6-((2-Hydroxy-2-methylpropyl)amino)pyridazin-3-yl)-3-methyl-5-(trifluoromethyl)phenol] was 85.9 nM; that for `Cc1cc(C(F)(F)F)cc(O)c1-c1cc(C(F)(F)F)c(N[C@H]2C[C@@](C)(O)C2)nn1` [Ex 56, 2-(6-(((cis)-3-Hydroxy-3-methylcyclobutyl)amino)-5-(trifluoromethyl)pyridazin-3-yl)-3-methyl-5-(trifluoromethyl)phenol] was 8.3 nM. Regarding `Cc1cc(C(F)(F)F)cc(O)c1-c1ccc(N[C@H]2CCCN3CCC[C@@H]23)nn1` (single isomer, unassigned) [Ex 83b], the IC50 under setting [1] was 69.4 nM. As to `Cc1cc(C(F)(F)F)cc(O)c1-c1ccc(NC[C@](C)(O)C(F)(F)F)nn1` [Ex 78, (S)-3-Methyl-2-(6-((3,3,3-trifluoro-2-hydroxy-2-methylpropyl)amino)pyridazin-3-yl)-5-(trifluoromethyl)phenol HCl-salt], under setting [1], the IC50 was determined as 198 nM. On to `Cc1cc(C(F)(F)F)cc(O)c1-c1ccc(N[C@@H]2CC[C@@H](O)[C@H]2O)nn1` (single isomer, unassigned) [Ex 89b], for which the IC50 under setting [1] stood at 182 nM.

With `Cc1cc(C(F)(F)F)cc(O)c1-c1ccc(NC[C@@H]2C[C@@H](F)CN2)nn1` [Ex 76, 2-(6-((((2S,4R)-4-Fluoropyrrolidin-2-yl)methyl)amino)pyridazin-3-yl)-3-methyl-5-(trifluoromethyl)phenol], the IC50 under setting [1] was found to be 89.7 nM.

Consider `Cc1cc(C(F)(F)F)cc(O)c1-c1ccc(N[C@@H]2CCC[C@H](O)C2)nn1` [Ex 3, 2-(6-(((1R,3S)-3-Hydroxycyclohexyl)amino)pyridazin-3-yl)-3-methyl-5-(trifluoromethyl)phenol], for which the IC50 under setting [1] turned out to be 25.5 nM. For the molecule `Cc1cc(C(F)(F)F)cc(O)c1-c1ccc(NC2CCC3CCC2N3C)nn1` (single isomer, unassigned) [Ex 85b], it took 1.3 nM to reach half-maximal inhibition under setting [2] (IC50). Regarding `Cc1cc(NCC(C)(C)O)nnc1-c1c(C)cc(C(F)(F)F)cc1O` [Ex 73, 2-(6-((2-Hydroxy-2-methylpropyl)amino)-4-methylpyridazin-3-yl)-3-methyl-5-(trifluoromethyl)phenol], the IC50 under setting [1] came to 154 nM. Turning to `Cc1cc(C(F)(F)F)cc(O)c1-c1ccc(NCC2(O)CCCC2)nn1` [Ex 98, 2-(6-(((1-Hydroxycyclopentyl)methyl)amino)pyridazin-3-yl)-3-methyl-5-(trifluoromethyl)phenol], the IC50 under setting [1] came out at 115 nM.

Take `Cc1cc(C(F)(F)F)cc(O)c1-c1ccc(NC[C@H]2CCCN2)nn1` [Ex 14, (R)-3-Methyl-2-(6-((pyrrolidin-2-ylmethyl)amino)pyridazin-3-yl)-5-(trifluoromethyl)phenol]: the IC50 under setting [1] is 85.7 nM. `Cc1cc(C(F)(F)F)cc(O)c1-c1ccc(NC[C@@H](F)C(C)(C)O)nn1` [Ex 60, (R)-2-(6-((2-Fluoro-3-hydroxy-3-methylbutyl)amino)pyridazin-3-yl)-3-methyl-5-(trifluoromethyl)phenol]: the IC50 under setting [1] amounted to 139 nM. In the case of `Cc1cc(C(F)(F)F)cc(O)c1-c1ccc(N[C@H]2C[C@@](C)(O)C2)nn1` [Ex 2, 2-(6-(((cis)-3-Hydroxy-3-methylcyclobutyl)amino)pyridazin-3-yl)-3-methyl-5-(trifluoromethyl)phenol], the half-maximal inhibitory concentration (IC50) under setting [1] stood at 10.2 nM. As to `Cc1cc(C(F)(F)F)cc(O)c1-c1ccc(N[C@@H]2CCC[C@@H](O)C2)nn1` [Ex 58, 2-(6-(((1R,3R)-3-Hydroxycyclohexyl)amino)pyridazin-3-yl)-3-methyl-5-(trifluoromethyl)phenol], the concentration for half-maximal inhibition (IC50) under setting [1] was determined as 58.4 nM. As to `CC(C)(O)CNc1ccc(-c2c(O)cc(C(F)(F)F)cc2Cl)nn1` [Ex 30, 3-Chloro-2-(6-((2-hydroxy-2-methylpropyl)amino)pyridazin-3-yl)-5-(trifluoromethyl)phenol], the IC50 under setting [1] stood at 214 nM. On to `Cc1cc(C(F)(F)F)cc(O)c1-c1ccc(N[C@@H]2CCCN3CCC[C@H]23)nn1` (single isomer, unassigned) [Ex 83a], for which the IC50 under setting [1] was 0.8 nM.

In the case of `OCCNc1ccc(-c2c(O)cc(C(F)(F)F)cc2Cl)nn1` [Ex 37, 3-Chloro-2-(6-((2-hydroxyethyl)amino)pyridazin-3-yl)-5-(trifluoromethyl)phenol], the IC50 under setting [1] was 381 nM. Turning to `Cc1cc(-c2c(C)cc(C(F)(F)F)cc2O)nnc1N[C@@H]1CCCN(C)C1=O` [Ex 102, (R)-3-((6-(2-Hydroxy-6-methyl-4-(trifluoromethyl)phenyl)-4-methylpyridazin-3-yl)amino)-1-methylpiperidin-2-one], the 50% inhibitory concentration (IC50) under setting [1] came out at 49 nM.

For `Cc1cc(C(F)(F)F)cc(O)c1-c1ccc(NC[C@@H]2C[C@H](F)CN2)nn1` [Ex 75, 2-(6-((((2S,4S)-4-Fluoropyrrolidin-2-yl)methyl)amino)pyridazin-3-yl)-3-methyl-5-(trifluoromethyl)phenol], under setting [1], the half-inhibitory concentration (IC50) worked out at 18.3 nM.

For the molecule `Cc1cc(C(F)(F)F)cc(O)c1-c1ccc(NC[C@H]2CCCCN2)nn1` [Ex 20, (R)-3-Methyl-2-(6-((piperidin-2-ylmethyl)amino)pyridazin-3-yl)-5-(trifluoromethyl)phenol], under setting [1], the IC50 turned out to be 82.3 nM.

Take `C[C@]1(O)C[C@@H](Nc2cc(C(F)(F)F)c(-c3ccc(Cl)cc3O)nn2)C1` [Ex 69, 5-Chloro-2-(6-(((cis)-3-hydroxy-3-methylcyclobutyl)amino)-4-(trifluoromethyl)pyridazin-3-yl)phenol]: the IC50 under setting [1] stood at 431 nM. Still for that read-out and setting: the value for `Cc1cc(C(F)(F)F)cc(O)c1-c1ccc(NC[C@@](C)(O)CO)nn1` (single isomer, unassigned) [Ex 88b] was 60.5 nM. Take `Cc1cc(-c2c(C)cc(C(F)(F)F)cc2O)nnc1N[C@H]1C[C@@](C)(O)C1` [Ex 54, 2-(6-(((cis)-3-Hydroxy-3-methylcyclobutyl)amino)-5-methylpyridazin-3-yl)-3-methyl-5-(trifluoromethyl)phenol]: under setting [1], the IC50 was found to be 11.8 nM.

On to `Oc1cc(C(F)(F)F)cc(Cl)c1-c1ccc(N[C@H]2C[C@H](O)C2)nn1` [Ex 32, 3-Chloro-2-(6-((trans-3-hydroxycyclobutyl)amino)pyridazin-3-yl)-5-(trifluoromethyl)phenol], for which, under setting [1], the IC50 is 218 nM. Turning to `Cc1cc(C(F)(F)F)cc(O)c1-c1ccc(NC[C@@H]2CCCCN2CCO)nn1` (single isomer, unassigned) [Ex 84b], under setting [1], the IC50 was determined as 53.3 nM.

Turning to `Cc1cc(C(F)(F)F)cc(O)c1-c1ccc(NC(C)(C)CO)nn1` [Ex 79, 2-(6-((1-Hydroxy-2-methylpropan-2-yl)amino)pyridazin-3-yl)-3-methyl-5-(trifluoromethyl)phenol], the IC50 under setting [1] is 370 nM. In the case of `Cc1cc(C(F)(F)F)cc(O)c1-c1ccc(NCC(C)(C)N(C)C)nn1` [Ex 16, 2-(6-((2-(Dimethylamino)-2-methylpropyl)amino)pyridazin-3-yl)-3-methyl-5-(trifluoromethyl)phenol], the IC50 under setting [1] was 36.3 nM. On to `Cc1cc(C(F)(F)F)cc(O)c1-c1ccc(NCc2ccccn2)nn1` [Ex 28, 3-Methyl-2-(6-((pyridin-2-ylmethyl)amino)pyridazin-3-yl)-5-(trifluoromethyl)phenol], for which the IC50 under setting [1] worked out at 288 nM. In the case of `Cc1cc(C(F)(F)F)cc(O)c1-c1ccc(NC2CCC3CCC2N3CCO)nn1` (single isomer, unassigned) [Ex 86b], the midpoint of inhibition under setting [2], the IC50, lay at 1.8 nM.

Take `Cc1ncccc1CNc1ccc(-c2c(O)cc(C(F)(F)F)cc2Cl)nn1` [Ex 34, 3-Chloro-2-(6-(((2-methylpyridin-3-yl)methyl)amino)pyridazin-3-yl)-5-(trifluoromethyl)phenol]: the IC50 under setting [1] was 496 nM. As to `Cc1cc(C(F)(F)F)cc(O)c1-c1ccc(N[C@@H]2CCC[C@H]2O)nn1` (relative stereo) [Ex 24, (trans)-2-(6-((2-Hydroxycyclopentyl)amino)pyridazin-3-yl)-3-methyl-5-(trifluoromethyl)phenol], the IC50 under setting [1] is 120 nM.

In the case of `Cc1ncccc1CNc1ccc(-c2c(O)cc(Cl)cc2C(F)(F)F)nn1` [Ex 35, 5-Chloro-2-(6-(((2-methylpyridin-3-yl)methyl)amino)pyridazin-3-yl)-3-(trifluoromethyl)phenol], under setting [1], the IC50 was determined as 243 nM. Regarding `Cc1cc(C(F)(F)F)cc(O)c1-c1ccc(NC[C@H]2CCCCN2CCO)nn1` (single isomer, unassigned) [Ex 84a], under setting [1], the IC50 was 42.5 nM. On to `Cc1cc(C(F)(F)F)cc(O)c1-c1ccc(OCC(C)(C)O)nn1` [Ex 19, 2-(6-(2-Hydroxy-2-methylpropoxy)pyridazin-3-yl)-3-methyl-5-(trifluoromethyl)phenol], for which the IC50 under setting [1] is 93.6 nM.
